What all share (assay type): cell-based
Assay [1] addresses T1, Neuropeptide FF receptor 2 (Homo sapiens, UniProt Q9Y5X5). Kind of assay: Displacement of [3H]FFRF-NH2 from human flag-tagged NPFF2 receptor expressed in CHO cells at 500 nM by scintillation counting.
Assay [2] addresses T1, Neuropeptide FF receptor 2. Kind of assay: Displacement of [3H]FFRF-NH2 from human flag-tagged NPFF2 receptor expressed in CHO cells at 5 uM by scintillation counting.
Assay [3] concerns the target T2, Neuropeptide FF receptor 1 (Homo sapiens, UniProt Q9GZQ6). Description: Displacement of [3H]FFRF-NH2 from human flag-tagged NPFF1 receptor expressed in CHO cells at 500 nM by scintillation counting.
For assay [4], the target named is T2, Neuropeptide FF receptor 1. Kind of assay: Displacement of [3H]FFRF-NH2 from human flag-tagged NPFF1 receptor expressed in CHO cells at 5 uM by scintillation counting.

Here are results for 37 compounds from ChEMBL document CHEMBL2203185, “Development of sub-nanomolar dipeptidic ligands of neuropeptide FF receptors” (Bioorg Med Chem Lett, 2012).

Non-standard residues stand in square brackets, D forms with d. Residues, ends and D or L forms follow the SMILES beside them. Inp = O=C(O)C1CCNCC1

T1 sequence (Q9Y5X5 whole entry): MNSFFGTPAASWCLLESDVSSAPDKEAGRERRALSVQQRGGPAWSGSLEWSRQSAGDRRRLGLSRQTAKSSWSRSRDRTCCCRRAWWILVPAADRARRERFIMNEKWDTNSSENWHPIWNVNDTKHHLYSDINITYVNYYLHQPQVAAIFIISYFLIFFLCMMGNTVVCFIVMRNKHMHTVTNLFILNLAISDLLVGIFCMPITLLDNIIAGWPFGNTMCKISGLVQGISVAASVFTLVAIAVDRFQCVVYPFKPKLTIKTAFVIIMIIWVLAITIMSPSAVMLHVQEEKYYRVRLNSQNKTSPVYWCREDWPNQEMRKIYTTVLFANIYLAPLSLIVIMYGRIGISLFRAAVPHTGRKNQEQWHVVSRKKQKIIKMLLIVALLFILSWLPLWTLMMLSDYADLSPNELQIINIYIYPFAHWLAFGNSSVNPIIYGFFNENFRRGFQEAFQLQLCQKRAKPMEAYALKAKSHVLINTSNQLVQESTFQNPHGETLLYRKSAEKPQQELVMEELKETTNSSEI
T2 sequence (Q9GZQ6 whole entry): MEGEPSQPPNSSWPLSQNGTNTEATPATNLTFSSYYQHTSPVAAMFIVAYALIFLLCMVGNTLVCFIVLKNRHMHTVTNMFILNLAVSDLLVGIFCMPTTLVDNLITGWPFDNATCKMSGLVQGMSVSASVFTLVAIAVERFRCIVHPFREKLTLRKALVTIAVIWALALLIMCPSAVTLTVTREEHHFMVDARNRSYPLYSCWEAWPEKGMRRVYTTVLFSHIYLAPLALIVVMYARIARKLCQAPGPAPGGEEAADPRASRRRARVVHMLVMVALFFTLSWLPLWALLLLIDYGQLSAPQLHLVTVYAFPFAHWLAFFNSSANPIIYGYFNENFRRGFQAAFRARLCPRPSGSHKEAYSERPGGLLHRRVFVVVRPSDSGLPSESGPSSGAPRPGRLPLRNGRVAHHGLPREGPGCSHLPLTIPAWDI

As to `N=C(N)NCCC[C@H](NC(=O)c1ccco1)C(=O)N[C@@H](Cc1ccccc1)C(N)=O`, the inhibition in assay [1] was determined as 3%; in assay [2] it was 23%; in assay [3] it was 42%; in assay [4], 92%.

With `N=C(N)NCCC[C@H](NC(=O)c1ccc(C(=O)c2ccccc2)cc1)C(=O)N[C@@H](Cc1ccccc1)C(N)=O`, the inhibition in assay [1] worked out at 4%; in assay [2] it was 43%; in assay [3], 14%; in assay [4], 68%.

For `N=C(N)NCCC[C@H](NC(=O)c1cc2ccccc2[nH]1)C(=O)N[C@@H](Cc1ccccc1)C(N)=O`, the inhibition in assay [1] amounted to 35%; in assay [2], 80%; in assay [3] it was 26%; in assay [4], 86%.

For the compound `N=C(N)NCCC[C@H](NC(=O)c1cccc(Cl)c1)C(=O)N[C@@H](Cc1ccccc1)C(N)=O`, the inhibition in assay [1] came out at 0%; in assay [2], 20%; in assay [3] it was 56%; in assay [4], 84%.

`N=C(N)NCCC[C@H](NC(=O)c1cccc2ccccc12)C(=O)N[C@@H](Cc1ccccc1)C(N)=O`: the inhibition in assay [1] amounted to 37%; in assay [2], 82%; in assay [3], 40%; in assay [4] it was 90%.

For the compound `N=C(N)NCCC[C@H](NC(=O)c1ccc2ccccc2c1)C(=O)N[C@@H](Cc1ccccc1)C(N)=O`, the inhibition amounted to 23% in assay [1], 56% in assay [2], 27% in assay [3] and 81% in assay [4].

For the compound `N=C(N)NCCC[C@H](NC(=O)c1ccc(Cl)cc1Cl)C(=O)N[C@@H](Cc1ccccc1)C(N)=O`, the inhibition is 2% in assay [1], 38% in assay [2], 0% in assay [3] and 75% in assay [4].

Take `N=C(N)NCCC[C@H](NC(=O)Cc1ccccc1)C(=O)N[C@@H](Cc1ccccc1)C(N)=O`: the inhibition in assay [1] was determined as 5%; in assay [2] it was 52%; in assay [3], 26%; in assay [4], 82%.

As to `N=C(N)NCCC[C@H](NC(=O)CCC(=O)O)C(=O)N[C@@H](Cc1ccccc1)C(N)=O`, the inhibition stood at 0% in assay [1], 20% in assay [2], 29% in assay [3] and 34% in assay [4].

Consider `N=C(N)NCCC[C@@H](NC(=O)c1cccc(-c2ccccc2)c1)C(=O)N[C@@H](Cc1ccccc1)C(N)=O`, for which the inhibition amounted to 65% in assay [1], 72% in assay [2], 85% in assay [3] and 99% in assay [4].

With `COc1cccc(CC(=O)N[C@@H](CCCNC(=N)N)C(=O)N[C@@H](Cc2ccccc2)C(N)=O)c1`, the inhibition in assay [1] came out at 19%; in assay [2] it was 50%; in assay [3], 42%; in assay [4], 89%.

In the case of `N=C(N)NCCC[C@@H](NC(=O)Cc1ccccc1)C(=O)N[C@H](Cc1ccccc1)C(N)=O`, the inhibition stood at 4% in assay [1], 30% in assay [2], 43% in assay [3] and 78% in assay [4].

Turning to `COc1ccc(C(=O)N[C@@H](CCCNC(=N)N)C(=O)N[C@@H](Cc2ccccc2)C(N)=O)cn1`, the inhibition in assay [1] was 14%; in assay [2], 54%; in assay [3], 19%; in assay [4] it was 77%.

As for `N=C(N)NCCC[C@H](NC(=O)c1cccc(C(=O)c2ccccc2)c1)C(=O)N[C@@H](Cc1ccccc1)C(N)=O`, the inhibition in assay [1] was 0%; in assay [2] it was 40%; in assay [3], 15%; in assay [4] it was 78%.

Consider `N=C(N)NCCC[C@H](NC(=O)c1nc2ccccc2[nH]1)C(=O)N[C@@H](Cc1ccccc1)C(N)=O`, for which the inhibition in assay [1] was 12%; in assay [2], 49%; in assay [3], 35%; in assay [4], 98%.

With `N=C(N)NCCC[C@@H](NC(=O)C12CC3CC(CC(C3)C1)C2)C(=O)N[C@H](Cc1ccccc1)C(N)=O`, the inhibition in assay [1] was determined as 11%; in assay [2], 57%; in assay [3] it was 57%; in assay [4], 100%.

`N=C(N)NCCC[C@@H](NC(=O)c1ccc(-c2ccccc2)cc1)C(=O)N[C@@H](Cc1ccccc1)C(N)=O`: the inhibition in assay [1] was 43%; in assay [2] it was 57%; in assay [3], 81%; in assay [4] it was 92%.

As to `N=C(N)NCCC[C@H](NC(=O)c1cnc2ccccc2c1)C(=O)N[C@@H](Cc1ccccc1)C(N)=O`, the inhibition in assay [1] amounted to 24%; in assay [2], 47%; in assay [3], 22%; in assay [4], 79%.

`COc1ccc(CC(=O)N[C@@H](CCCNC(=N)N)C(=O)N[C@@H](Cc2ccccc2)C(N)=O)cc1`: the inhibition in assay [1] turned out to be 14%; in assay [2], 21%; in assay [3], 18%; in assay [4], 52%.

Regarding `N=C(N)NCCC[C@H](NC(=O)/C=C/c1ccccc1O)C(=O)N[C@@H](Cc1ccccc1)C(N)=O`, the inhibition in assay [1] stood at 17%; in assay [2], 77%; in assay [3] it was 25%; in assay [4], 82%.

On to `CC(C)(C)C(=O)N[C@@H](CCCNC(=N)N)C(=O)N[C@@H](Cc1ccccc1)C(N)=O`, for which the inhibition in assay [1] worked out at 38%; in assay [2], 48%; in assay [3] it was 35%; in assay [4] it was 91%.

`N=C(N)NCCC[C@@H](NC(=O)c1ccccc1-c1ccccc1)C(=O)N[C@H](Cc1ccccc1)C(N)=O`: the inhibition in assay [1] turned out to be 8%; in assay [2], 70%; in assay [3], 85%; in assay [4], 92%.

With `N=C(N)NCCC[C@H](NC(=O)c1ccc(Cl)cc1)C(=O)N[C@@H](Cc1ccccc1)C(N)=O`, the inhibition was found to be 3% in assay [1], 7% in assay [2], 37% in assay [3] and 59% in assay [4].

On to `N=C(N)NCCC[C@H](NC(=O)c1ccc(-c2ccccc2)cc1)C(=O)N[C@@H](Cc1ccccc1)C(N)=O`, for which the inhibition in assay [1] turned out to be 0%; in assay [2], 15%; in assay [3] it was 20%; in assay [4] it was 43%.

With `COc1ccc(/C=C/C(=O)N[C@@H](CCCNC(=N)N)C(=O)N[C@@H](Cc2ccccc2)C(N)=O)cc1OC`, the inhibition in assay [1] was found to be 4%; in assay [2], 34%; in assay [3] it was 19%; in assay [4], 77%.

On to `N=C(N)NCCC[C@H](NC(=O)c1ccc2ccccc2n1)C(=O)N[C@@H](Cc1ccccc1)C(N)=O`, for which the inhibition is 28% in assay [1], 82% in assay [2], 34% in assay [3] and 100% in assay [4].

`N=C(N)NCCC[C@@H](NC(=O)c1ccc(-c2ccccc2)cc1)C(=O)N[C@H](Cc1ccccc1)C(N)=O`: the inhibition in assay [1] was determined as 6%; in assay [2], 50%; in assay [3] it was 40%; in assay [4] it was 83%.

For `N=C(N)NCCC[C@@H](NC(=O)c1cccc(-c2ccccc2)c1)C(=O)N[C@H](Cc1ccccc1)C(N)=O`, the inhibition in assay [1] turned out to be 6%; in assay [2], 38%; in assay [3], 63%; in assay [4], 88%.

As for `N=C(N)NCCC[C@H](NC(=O)Cc1ccccc1Cl)C(=O)N[C@@H](Cc1ccccc1)C(N)=O`, the inhibition came out at 16% in assay [1], 60% in assay [2], 47% in assay [3] and 83% in assay [4].

`N=C(N)NCCC[C@H](NC(=O)/C=C/c1ccccc1)C(=O)N[C@@H](Cc1ccccc1)C(N)=O`: the inhibition in assay [1] was 24%; in assay [2], 46%; in assay [3], 3%; in assay [4], 58%.

Turning to `N=C(N)NCCC[C@H](NC(=O)c1ccncc1)C(=O)N[C@@H](Cc1ccccc1)C(N)=O`, the inhibition turned out to be 2% in assay [1], 21% in assay [2], 18% in assay [3] and 74% in assay [4].

With `COc1ccc(CC(=O)N[C@@H](CCCNC(=N)N)C(=O)N[C@@H](Cc2ccccc2)C(N)=O)cc1OC`, the inhibition in assay [1] is 0%; in assay [2], 28%; in assay [3], 8%; in assay [4], 70%.

For `N=C(N)NCCC[C@H](NC(=O)c1ccccc1-c1ccccc1)C(=O)N[C@@H](Cc1ccccc1)C(N)=O`, the inhibition in assay [1] amounted to 22%; in assay [2] it was 30%; in assay [3], 96%; in assay [4], 100%.

In the case of `N=C(N)NCCC[C@H](NC(=O)c1ccc(Cl)c(Cl)c1)C(=O)N[C@@H](Cc1ccccc1)C(N)=O`, the inhibition amounted to 12% in assay [1], 67% in assay [2], 25% in assay [3] and 77% in assay [4].

Take `COc1ccc(C(=O)N[C@@H](CCCNC(=N)N)C(=O)N[C@@H](Cc2ccccc2)C(N)=O)cc1`: the inhibition in assay [1] is 1%; in assay [2], 21%; in assay [3], 18%; in assay [4], 71%.

On to `N=C(N)NCCC[C@H](NC(=O)C1CCNCC1)C(=O)N[C@@H](Cc1ccccc1)C(N)=O` (H-[Inp]-Arg-Phe-NH2), for which the inhibition in assay [1] is 19%; in assay [2] it was 59%; in assay [3], 26%; in assay [4], 100%.

Turning to `CCCCCCCCCCC(=O)N[C@@H](CCCNC(=N)N)C(=O)N[C@@H](Cc1ccccc1)C(N)=O`, the inhibition was 13% in assay [1], 33% in assay [2], 44% in assay [3] and 100% in assay [4].
